For this test, the target named is Integrin alpha-5/beta-1 (Homo sapiens, UniProt P05556+P08648). The experiment in a line: Inhibition of fibronectin (GST-3Fn8-11) binding to recombinant soluble mini integrin alpha5-beta1. In kind it is protein-complex assay.

A word on the IC50: it is the concentration needed to halve the response being measured.

Sequence of Integrin alpha-5/beta-1 (P05556 21-798 limits assumed): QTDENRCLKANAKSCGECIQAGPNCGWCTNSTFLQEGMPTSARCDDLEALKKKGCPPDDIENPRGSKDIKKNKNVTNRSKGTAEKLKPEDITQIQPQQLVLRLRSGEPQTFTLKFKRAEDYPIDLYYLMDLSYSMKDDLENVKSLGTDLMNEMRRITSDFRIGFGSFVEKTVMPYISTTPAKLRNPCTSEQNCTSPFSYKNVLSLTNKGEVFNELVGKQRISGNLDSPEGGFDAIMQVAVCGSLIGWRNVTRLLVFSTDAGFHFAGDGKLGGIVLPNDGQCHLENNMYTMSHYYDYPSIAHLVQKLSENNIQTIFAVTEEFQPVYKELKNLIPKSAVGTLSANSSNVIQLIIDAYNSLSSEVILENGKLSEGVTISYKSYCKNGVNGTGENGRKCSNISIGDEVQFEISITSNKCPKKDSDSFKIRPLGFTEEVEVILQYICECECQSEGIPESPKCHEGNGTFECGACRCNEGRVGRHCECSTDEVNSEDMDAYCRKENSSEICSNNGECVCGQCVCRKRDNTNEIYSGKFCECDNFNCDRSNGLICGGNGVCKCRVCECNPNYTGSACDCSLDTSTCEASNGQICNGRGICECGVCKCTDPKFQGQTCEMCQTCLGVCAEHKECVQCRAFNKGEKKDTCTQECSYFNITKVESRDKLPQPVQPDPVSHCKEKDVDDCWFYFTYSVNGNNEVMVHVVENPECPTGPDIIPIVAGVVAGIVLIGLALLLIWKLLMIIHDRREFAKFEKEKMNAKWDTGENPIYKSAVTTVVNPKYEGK
Sequence of Integrin alpha-5/beta-1 (P08648 42-894 limits assumed): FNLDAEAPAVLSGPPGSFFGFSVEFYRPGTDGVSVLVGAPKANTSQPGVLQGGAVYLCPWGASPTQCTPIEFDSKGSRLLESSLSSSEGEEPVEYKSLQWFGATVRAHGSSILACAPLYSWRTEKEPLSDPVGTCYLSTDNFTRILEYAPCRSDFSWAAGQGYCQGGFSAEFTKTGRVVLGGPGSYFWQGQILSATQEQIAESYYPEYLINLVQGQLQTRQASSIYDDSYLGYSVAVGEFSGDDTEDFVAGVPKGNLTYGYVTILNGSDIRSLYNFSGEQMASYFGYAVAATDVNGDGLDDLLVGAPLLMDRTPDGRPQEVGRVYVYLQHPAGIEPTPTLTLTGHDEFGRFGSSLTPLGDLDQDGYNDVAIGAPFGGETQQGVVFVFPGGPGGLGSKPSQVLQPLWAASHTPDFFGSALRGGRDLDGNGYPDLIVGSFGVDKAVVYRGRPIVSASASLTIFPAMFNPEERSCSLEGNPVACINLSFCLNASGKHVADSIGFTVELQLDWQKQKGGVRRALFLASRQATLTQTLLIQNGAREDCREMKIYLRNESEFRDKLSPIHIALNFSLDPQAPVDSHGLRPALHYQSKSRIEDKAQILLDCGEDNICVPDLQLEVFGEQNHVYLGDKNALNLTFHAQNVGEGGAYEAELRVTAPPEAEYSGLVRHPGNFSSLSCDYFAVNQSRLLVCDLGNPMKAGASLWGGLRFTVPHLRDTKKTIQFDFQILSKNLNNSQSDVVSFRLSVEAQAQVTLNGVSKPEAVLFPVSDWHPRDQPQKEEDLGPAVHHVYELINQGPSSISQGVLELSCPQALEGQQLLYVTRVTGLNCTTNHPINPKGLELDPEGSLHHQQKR
Sequence of Integrin alpha-5/beta-1 (P08648 895-1049 limits assumed): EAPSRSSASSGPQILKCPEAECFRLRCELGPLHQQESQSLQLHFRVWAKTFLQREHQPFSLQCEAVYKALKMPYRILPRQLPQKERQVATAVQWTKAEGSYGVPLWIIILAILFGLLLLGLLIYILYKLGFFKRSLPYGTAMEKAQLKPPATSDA

As to `NC(N)=NCCC[C@H](N)C(=O)NCC(=O)N[C@@H](CC(=O)O)C(=O)N[C@@H](CO)C(=O)O`, the IC50 came to 2.2 µM.
Take `N=C(N)NCCCNC(=O)[C@@H]1CCC(=O)N2C[C@H](CCC(=O)O)[C@H]2C1`: the IC50 turned out to be 3100 µM.
For the compound `N=C(N)NCCCNC(=O)C1CCC(=O)N2CC(CCC(=O)O)C2C1` (centres undefined), the half-inhibitory concentration (IC50) was found to be 1300 µM.
The same measure for `N=C(N)NCCCNC(=O)[C@H]1CCC(=O)N2C[C@H](CCC(=O)O)[C@H]2C1`: 65 µM.

Values taken from ChEMBL document CHEMBL1144959, “Nonpeptide RGD antagonists: a novel class of mimetics, the 5,8-disubstituted 1-azabicyclo[5.2.0]nonan-2-one lactam” (Bioorg Med Chem Lett, 2003).
